Experimental data from US8044080B2, “Isoxazoline derivative and novel process for its preparation” (LG Life Sciences Ltd., priority 2005, dated 2011).

Columns and labels:
[1] = Stability test of amorphous and crystalline form under severe condition (60° C.); format: physicochemical; details: after 28 days
Text: Therefore, it should be understood that the crystalline form has better stability than the amorphous form enough to be used for the composition of inhibitor or therapeutic agent.

[2] = tested on: Fas Antibody-Induced Acute Hepatitis in Mice; assay: Treatment effect on Fas antibody-induced acute hepatitis in mice (blood plasma ALT activity); format: in vivo, Male Balb/c mice; details: Mus musculus, Fas antibody model, plasma ALT 8 hours after drug injection
[3] = tested on: LPS-Induced Acute Hepatitis in Mice; assay: Treatment effect on LPS-induced acute hepatitis in mice (blood plasma ALT activity); format: in vivo, Male Balb/c mice; details: Mus musculus, LPS/D-Gln model, plasma ALT 8 hours after drug injection

SMILES: CC(C)[C@@]1(C(=O)N[C@H]2CC(=O)O[C@]2(O)CF)CC(c2nccc3ccccc23)=NO1 [(4S,5S)-5-fluoromethyl-5-hydroxy-4-({[(5R)-5-isopropyl-3-(1-isoquinolinyl)-4,5-dihydro-5-isoxazolyl]carbonyl}amino)-2-dihydrofuranone]
- amount destroyed in stability test [1]: 50%
- quantitative amount in stability test [1]: not decreased at all

SMILES: CC(C)[C@@]1(C(=O)N[C@H]2CC(=O)O[C@]2(O)CF)CC(c2nccc3ccccc23)=NO1 [compound of formula (1), (4S,5S)-5-fluoromethyl-5-hydroxy-4-({[(5R)-5-isopropyl-3-(1-isoquinolinyl)-4,5-dihydro-5-isoxazolyl]carbonyl}amino)-2-dihydrofuranone]
- ED50 ([2]; intravenous administration): 0.003 mg/kg
- ED50 ([2]; oral administration): 0.018 mg/kg
- ED50 ([3]; intravenous administration): 0.015 mg/kg
- ED50 ([3]; oral administration): 0.02 mg/kg
